Test results reported in US20140296146A1, “Thermostable Inhibitors of Activation of the Blood Clotting System Through Contact with Foreign Surfaces” (Synapse B.V., priority 2011, published 2014).

Assays:
h-FXIIa = molecular target: T1, h-FXIIa (Homo sapiens, UniProt P00748); experiment: Effect of inhibitors on hydrolysis of S2302 by h-FXIIa; type: biochemical
T1 construct: purchased Enzyme Research Laboratories FXIIa 1212A
T1 sequence (P00748 373-615 limits assumed): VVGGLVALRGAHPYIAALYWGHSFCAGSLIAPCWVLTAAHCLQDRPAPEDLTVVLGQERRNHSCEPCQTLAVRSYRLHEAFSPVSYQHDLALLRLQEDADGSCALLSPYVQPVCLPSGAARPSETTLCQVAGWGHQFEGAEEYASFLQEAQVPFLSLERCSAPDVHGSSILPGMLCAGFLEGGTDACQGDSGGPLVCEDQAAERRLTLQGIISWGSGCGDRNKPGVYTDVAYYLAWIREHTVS
T1 sequence (P00748 20-372 partner limits assumed): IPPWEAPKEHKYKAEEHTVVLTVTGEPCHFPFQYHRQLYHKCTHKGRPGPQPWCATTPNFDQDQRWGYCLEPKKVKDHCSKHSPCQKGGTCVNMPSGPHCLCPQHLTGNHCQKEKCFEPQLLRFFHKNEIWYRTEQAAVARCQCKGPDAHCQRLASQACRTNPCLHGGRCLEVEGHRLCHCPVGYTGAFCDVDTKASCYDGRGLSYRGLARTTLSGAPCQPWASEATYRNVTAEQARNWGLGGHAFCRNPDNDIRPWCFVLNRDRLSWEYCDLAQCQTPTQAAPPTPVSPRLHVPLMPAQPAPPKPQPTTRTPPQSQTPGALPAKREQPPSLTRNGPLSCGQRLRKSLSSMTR
Procedure: Materials • S2302 From Chromogenic, lot # N0398718 SEQ0860, exp. date 2012-07. Water added on 7 Oct. […] On 3 Aug. […] Product code FXIIa 1212A, lot #FXIIa 2520PL. Bottle with 0.5 mg was reconstituted with 370 μl pure water. […] Buffer 4 mM NaAc, 150 mM NaCl (pH 5.3). Preparation was divided into 20 μl amounts and frozen at −80° C. • Hepes735 140 mM NaCl, 20 mM Hepes, 0.02% NaN3 (pH 7.35). • BSA5 Hepes735+5 mg/ml BSA. • CTI Prepared on 17 Dec. 2004, 0.141 mg/ml, i.e. 0.141/12028=11.7*10^−6 M (11.7 μM). One portion was thawed and divided into 3 parts. Part 1 was frozen at −80° C.; part 2 was kept at RT; and part 3 was incubated 30 min at 95° C. and then kept at RT.
Stock FXIIa was diluted 700× in BSA5. The inhibitor was diluted in BSA5 as indicated. Wells contained 70 μl diluted FXIIa (5 nM final), 70 μl inhibitor and 20 μl S2302 (475 or 462.5 μM final). The reaction was started after 5 min heating on the heating plate with S2302. Filters 405 nm and 490 nm reference. Found mΔA/min was multiplied by 2.14 to get the figure for a 1 cm path.
The residual activity (V) was fitted against the PTI concentration with equation:
V=(E+(sqrt(Ê2+2*E*(Ki−I)+Î2+2*I*Ki+Kî2)−E−I−Ki)/2)*kcat*S/(Km+S)
in which E=[FXIIa], Ki is the dissociation constant, I=[Inhibitor], kcat and Km are Michaelis constants and S=[S2302].

[1] = TICA1 Ala-scan with intact disulfides, activity vs TICA1; conditions: single amino acid substituted by alanine
Source text: Every single amino acid was substituted by alanine except for cysteine. […] See also FIG. 6.

contact activation = experiment: CAT assay at 0 pM TF on PPP from blood collection tubes with TICA added to tube or to assay; type: biochemical, human
Procedure: In 12 donors blood was drawn with 7 different drawing tubes with and without addition of TICA1 in the drawing tubes (total 14 tubes; 78 ml). After preparing PPP from these tubes, CAT measurements with MP reagent and pplow reagent was performed. One donor is measured in one plate. (pplow duplicate; MP duplicate; calibrator in 4 fold. Total volume is 320 μl sample/measurement in total 88 wells/donor.
In 12 donors blood is taken with the following commercial available drawing tubes: (From all blooddrawing tubes one tube with and one tube without TICA will be used to draw blood)
Final TICA concentration after blood drawing in every tube with added TICA is 30 μg/ml whole blood.
Final TICA concentration in plasma after preparing PPP is 60 μg/ml (assuming an hematocit of 50%)
CAT measurements with MP reagent and pplow reagent will be performed. One donor is measured in one plate. PPLow duplicate; MP duplicate; calibrator in 4 fold.
Total volume is 320 μl sample/measurement in total 88 wells/donor. NP2012 is also included in the measurement in 4 fold.
Lag times, Endogenous thrombin potentials, and peak height were recorded, For the current conditions of thrombin generation, peak height is the preferred parameter for interpretation of the results.
Plasma with TICA added: concentration in plasma: 60 μg/ml
Stock TICA: 1.5 mg/ml=>1500 μg/ml
20 μl TICA (stock: 1500 μg/ml) is added to 480 μl plasma.

[2] = TICA added to CAT assay, 60 μg/ml in plasma
[3] = TICA added to Tube, 30 μg/ml whole blood

## CC[C@H](C)[C@@H]1NC(=O)[C@H](CCCNC(=N)N)NC(=O)[C@@H]2CCCN2C(=O)[C@@H](NC(=O)[C@@H](NC(=O)[C@@H](N)CCCNC(=N)N)C(C)C)CSSC[C@@H]2NC(=O)[C@H](CCC(=O)O)NC(=O)[C@H](C)NC(=O)[C@H](CC(C)C)NC(=O)[C@@H]3CSSC[C@@H](C(=O)NCC(=O)O)NC(=O)[C@H](Cc4ccc(O)cc4)NC(=O)CNC(=O)[C@H](Cc4c[nH]cn4)NC(=O)[C@H](CCC(=O)O)NC(=O)[C@H](CC(C)C)NC(=O)[C@H](CSSC[C@H](NC(=O)[C@H](CCCCN)NC(=O)[C@H](CCSC)NC(=O)[C@H](CC(C)C)NC1=O)C(=O)N[C@@H](CCCCN)C(=O)N[C@@H](CCCCN)C(=O)N[C@@H](CC(=O)O)C(=O)N[C@@H](CO)C(=O)N[C@@H](CC(=O)O)C(=O)N3)NC(=O)[C@H](C(C)C)NC2=O [TICA1]
h-FXIIa; Ki, Table 2, inhibitory activity of different polypeptides
  Ki: 0.0255 µM
h-FXIIa; ki F.XIIa (ng/ml), After heating
  Ki: 0.026 µM
h-FXIIa; ki F.XIIa (ng/ml), Before heating
  Ki: 0.0254 µM
[1]
  Activity vs TICA1: 100%
Contact activation; [2]
  BD Glass 0 pM TF ETP (nM IIa · min): 760 ± 526 nM IIa · min
  BD Glass 0 pM TF Lagtime (min): 38.8 ± 34.8 min
  BD Glass 0 pM TF Peak Height (nM IIa): 105 ± 81 nM IIa
  BD Plastic 0 pM TF ETP (nM IIa · min): 614 ± 538 nM IIa · min
  BD Plastic 0 pM TF Lagtime (min): 49.5 ± 37.7 min
  BD Plastic 0 pM TF Peak Height (nM IIa): 86 ± 87 nM IIa
  Greiner 0 pM TF ETP (nM IIa · min): 834 ± 449 nM IIa · min
  Greiner 0 pM TF Lagtime (min): 31.2 ± 26.7 min
  Greiner 0 pM TF Peak Height (nM IIa): 110 ± 70 nM IIa
  Heamtech 0 pM TF ETP (nM IIa · min): 666 ± 552 nM IIa · min
  Heamtech 0 pM TF Lagtime (min): 46.4 ± 39.7 min
  Heamtech 0 pM TF Peak Height (nM IIa): 93 ± 85 nM IIa
  Sarstedt 0 pM TF ETP (nM IIa · min): 279 ± 227 nM IIa · min
  Sarstedt 0 pM TF Lagtime (min): 50.0 ± 38.0 min
  Sarstedt 0 pM TF Peak Height (nM IIa): 26 ± 23 nM IIa
  Terumo 0 pM TF ETP (nM IIa · min): 276 ± 367 nM IIa · min
  Terumo 0 pM TF Lagtime (min): 64 ± 40.6 min
  Terumo 0 pM TF Peak Height (nM IIa): 33 ± 50 nM IIa
Contact activation; [3]
  BD Glass 0 pM TF ETP (nM IIa · min): 77 ± 119 nM IIa · min
  BD Glass 0 pM TF Lagtime (min): 76.6 ± 34.0 min
  BD Glass 0 pM TF Peak Height (nM IIa): 6 ± 9 nM IIa
  BD Plastic 0 pM TF ETP (nM IIa · min): 20 ± 61 nM IIa · min
  BD Plastic 0 pM TF Lagtime (min): 90.1 ± 26.8 min
  BD Plastic 0 pM TF Peak Height (nM IIa): 2 ± 6 nM IIa
  Greiner 0 pM TF ETP (nM IIa · min): 144 ± 164 nM IIa · min
  Greiner 0 pM TF Lagtime (min): 65.0 ± 34.8 min
  Greiner 0 pM TF Peak Height (nM IIa): 11 ± 13 nM IIa
  Heamtech 0 pM TF ETP (nM IIa · min): 289 ± 420 nM IIa · min
  Heamtech 0 pM TF Lagtime (min): 65.0 ± 34.8 min
  Heamtech 0 pM TF Peak Height (nM IIa): 36 ± 62 nM IIa
  Sarstedt 0 pM TF ETP (nM IIa · min): 140 ± 106 nM IIa · min
  Sarstedt 0 pM TF Lagtime (min): 52.5 ± 36.2 min
  Sarstedt 0 pM TF Peak Height (nM IIa): 10 ± 8 nM IIa
  Terumo 0 pM TF ETP (nM IIa · min): 59 ± 119 nM IIa · min
  Terumo 0 pM TF Lagtime (min): 75.7 ± 35.6 min
  Terumo 0 pM TF Peak Height (nM IIa): 5 ± 11 nM IIa
